Measured values reported in patent EP4653437A2 (Innovo Therapeutics Inc., priority 2023, dated 2024).

Key:
A549 cells = assay: Measurement of PGE2-increasing activity in A549 cells (IL-1β stimulated, PGE2 quantified in supernatant); format: cell-based; conditions: Homo sapiens, 24 h; concentration of 1 µM of each compound; IL-1β treated A549 cells; read-out: Increased PGE2 production in A549 cells
How it was run: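 A549 cells grown 24 h in F12K with 10% FBS, then switched to serum-free medium with or without IL-1β and compound (0.1% DMSO final). After 24 h at 37 °C, 5% CO2, supernatant PGE2 quantified by immunoassay.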

human 15-PGDH = target: T1, human 15-PGDH (Homo sapiens, UniProt P15428); assay: Evaluation of 15-PGDH inhibitory activity (fluorescence enzyme assay, NAD+/PGE2); format: biochemical; conditions: human 15-PGDH enzyme, fluorescence Vmax
T1 construct: purchased R&D System 5660-DH
T1 sequence (P15428 1-266): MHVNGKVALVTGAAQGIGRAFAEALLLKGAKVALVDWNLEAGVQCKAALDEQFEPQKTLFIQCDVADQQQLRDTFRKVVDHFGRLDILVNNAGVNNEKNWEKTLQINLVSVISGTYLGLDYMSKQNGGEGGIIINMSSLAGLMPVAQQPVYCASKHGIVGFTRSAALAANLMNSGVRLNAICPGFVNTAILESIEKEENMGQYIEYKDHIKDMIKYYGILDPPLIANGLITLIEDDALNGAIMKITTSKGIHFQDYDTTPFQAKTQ
Description: 15-PGDH inhibition activity of Example compounds was measured as follows. 6.7 ng of human 15-PGDH (R&D System# 5660-DH) enzyme (10 µL) was added to a black 96 well plate, 60 µL of buffer (50 mM Tris-HCl, pH 7.5, 0.01% Tween 20) was added, and 10 µL of 200 µM β-Nicotinamide adenine dinucleotide sodium salt (Sigma, Cat# N0632-5G) was added. 10 µL of (10x) compound solution in DMSO was added and reacted for 10 minutes at room temperature.

| SMILES | fold induction at 1 µM (A549 cells) | IC50 (human 15-PGDH) |
| --- | --- | --- |
| CCC1CCCN(C(=O)c2cnn3c(-c4ccc5c(c4)C(=O)NC5)cccc23)C1 (centres unmarked) [Example 393, 6-(3-(3-ethylpiperidine-1-carbonyl)pyrazolo[1,5-a]pyridin-7-yl)isoindolin-1-one] | > 1.5 | ≤ 100 nM |
| O=C(NCC1CC1)c1ccc(-c2cccc3c(C(=O)N4CCCCC4)cnn23)cc1 [Example 64, N-(cyclopropylmethyl)-4-(3-(piperidine-1-carbonyl)pyrazolo[1,5-a]pyridin-7-yl)benzamide] | > 1.5 | ≤ 100 nM |
| O=C(Nc1ccncc1)c1cccc(-c2cccc3c(C(=O)N4CCCCC4)cnn23)c1 [Example 38, 3-(3-(piperidine-1-carbonyl)pyrazolo[1,5-a]pyridin-7-yl)-N-(pyridin-4-yl)benzamide] | > 1.5 | ≤ 100 nM |
| O=C1NCc2ccc(-c3cccc4c(C(=O)N5CCCC(F)C5)cnn34)cc21 (centres unmarked) [Example 378, 6-(3-(3-fluoropiperidine-1-carbonyl)pyrazolo[1,5-a]pyridin-7-yl)isoindolin-1-one] | > 1.5 | ≤ 100 nM |
| O=C(c1cnn2c(-c3ccc(F)nc3)cccc12)N1CCCC(C(F)(F)F)C1 (centres unmarked) [Example 338, (7-(6-fluoropyridin-3-yl)pyrazolo[1,5-a]pyridin-3-yl)(3-(trifluoromethyl)piperidin-1-yl)methanone] | > 1.5 | ≤ 100 nM |
| O=C(c1cnn2c(-c3cc(F)nc(F)c3)cccc12)N1CCCCC1 [Example 273, (7-(2,6-difluoropyridin-4-yl)pyrazolo[1,5-a]pyridin-3-yl)(piperidin-1-yl)methanone] | > 1.5 | ≤ 100 nM |
| N#Cc1ncc(-c2ccc(-c3cccc4c(C(=O)N5CCCCC5)cnn34)cc2)cn1 [Example 305, 5-[4-[3-(piperidine-1-carbonyl)pyrazolo[1,5-a]pyridin-7-yl]phenyl]pyrimidine-2-carbonitrile] | > 1.5 | ≤ 100 nM |
| CN1Cc2ccc(-c3cccc4c(C(=O)N5CCCCC5)cnn34)cc2C1=O [Example 141, 2-methyl-6-(3-(piperidine-1-carbonyl)pyrazolo[1,5-a]pyridin-7-yl)isoindolin-1-one] | > 1.5 | ≤ 100 nM |
| O=C(c1cnn2c(-c3cnc(Cl)c(F)c3)cccc12)N1CCCCC1 [Example 281, (7-(6-chloro-5-fluoropyridin-3-yl)pyrazolo[1,5-a]pyridin-3-yl)(piperidin-1-yl)methanone] | > 1.5 | ≤ 100 nM |
| COC(=O)C1CN(c2ccc(-c3cccc4c(C(=O)N5CCCCC5)cnn34)cn2)C1 [Example 219, methyl 1-(5-(3-(piperidine-1-carbonyl)pyrazolo[1,5-a]pyridin-7-yl)pyridin-2-yl)azetidine-3-carboxylate] | > 1.5 | ≤ 100 nM |
| Nc1noc2cc(-c3cccc4c(C(=O)N5CCCCC5)cnn34)ccc12 [Example 320, [7-(3-amino-1,2-benzoxazol-6-yl)pyrazolo[1,5-a]pyridin-3-yl]-(1-piperidyl)methanone] | > 1.5 | ≤ 100 nM |
| CC(C)N1CCc2ccc(-c3cccc4c(C(=O)N5CCCCC5)cnn34)cc2C1=O [Example 133, 2-isopropyl-7-(3-(piperidine-1-carbonyl)pyrazolo[1,5-a]pyridin-7-yl)-3,4-dihydroisoquinolin-1(2H)-one] | > 1.5 | ≤ 100 nM |
| CC1CCCN(C(=O)c2cnn3c(-c4ccc(F)nc4)cccc23)C1 (centres unmarked) [Example 336, (7-(6-fluoropyridin-3-yl)pyrazolo[1,5-a]pyridin-3-yl)(3-methylpiperidin-1-yl)methanone] | > 1.5 | ≤ 100 nM |
| O=C(Cc1cccnc1)Nc1c(F)cc(-c2cccc3c(C(=O)N4CCCCC4)cnn23)cc1F [Example 278, N-(2,6-difluoro-4-(3-(piperidine-1-carbonyl)pyrazolo[1,5-a]pyridin-7-yl)phenyl)-2-(pyridin-3-yl)acetamide] | > 1.5 | ≤ 100 nM |
| O=C(c1cnn2c(-c3ccc(-c4cnc(O)nc4)cc3)cccc12)N1CCCCC1 [Example 306, [7-[4-(2-hydroxypyrimidin-5-yl)phenyl]pyrazolo[1,5-a]pyridin-3-yl]-(1-piperidyl)methanone] | > 1.5 | ≤ 100 nM |
| Nc1noc2ccc(-c3cccc4c(C(=O)N5CCCCC5)cnn34)cc12 [Example 259, [7-(3-amino-1,2-benzoxazol-5-yl)pyrazolo[1,5-a]pyridin-3-yl]-(1-piperidyl)methanone] | > 1.5 | ≤ 100 nM |

| SMILES | fold induction at 1 µM (A549 cells) | IC50 (human 15-PGDH) |
| --- | --- | --- |
| COc1cccc(Sc2cccc3c(C(=O)N4CCCCC4)cnn23)c1 [Example 194, (7-((3-methoxyphenyl)thio)pyrazolo[1,5-a]pyridin-3-yl)(piperidin-1-yl)methanone] | < 1.5 | ≤ 100 nM |
| COCCCNc1ccc(-c2cccc3c(C(=O)N4CCCCC4)cnn23)cn1 [Example 107, (7-(6-((3-methoxypropyl)amino)pyridin-3-yl)pyrazolo[1,5-a]pyridin-3-yl)(piperidin-1-yl)methanone] | > 1.5 | ≤ 100 nM |
| O=C(c1cnn2c(-c3cnc(-c4nnco4)c(F)c3)cccc12)N1CCCCC1 [Example 380, [7-[5-fluoro-6-(1,3,4-oxadiazol-2-yl)-3-pyridyl]pyrazolo[1,5-a]pyridin-3-yl]-(1-piperidyl)methanone] | > 1.5 | ≤ 100 nM |
| N#CCCNC(=O)c1cncc(-c2cccc3c(C(=O)N4CCCCC4)cnn23)c1 [Example 51, N-(2-cyanoethyl)-5-(3-(piperidine-1-carbonyl)pyrazolo[1,5-a]pyridin-7-yl)nicotinamide] | > 1.5 | ≤ 100 nM |
| O=C(c1ccc(-c2cccc3c(C(=O)N4CCCCC4)cnn23)cc1)N1CCNCC1 [Example 66, piperazin-1-yl(4-(3-(piperidine-1-carbonyl)pyrazolo[1,5-a]pyridin-7-yl)phenyl)methanone] | > 1.5 | ≤ 100 nM |
| Cn1nccc1-c1cc(-c2cccc3c(C(=O)N4CCCCC4)cnn23)cc(N2CCOCC2)n1 [Example 369, (7-(2-(1-methyl-1H-pyrazol-5-yl)-6-morpholinopyridin-4-yl)pyrazolo[1,5-a]pyridin-3-yl)(piperidin-1-yl)methanone] | > 1.5 | ≤ 100 nM |
| CN1CCc2ccc(-c3cccc4c(C(=O)N5CCCCC5)cnn34)cc2C1=O [Example 132, 2-methyl-7-(3-(piperidine-1-carbonyl)pyrazolo[1,5-a]pyridin-7-yl)-3,4-dihydroisoquinolin-1(2H)-one] | > 1.5 | ≤ 100 nM |
| O=C1NCc2ccc(-c3cccc4c(C(=O)N5CC6(CC(F)C6)C5)cnn34)cc21 [Example 411, 6-(3-(6-fluoro-2-azaspiro[3.3]heptane-2-carbonyl)pyrazolo[1,5-a]pyridin-7-yl)isoindolin-1-one] | > 1.5 | ≤ 100 nM |
| O=C1NCc2ccc(Nc3cccc4c(C(=O)N5CCCCC5)cnn34)cc21 [Example 212, 6-[[3-(piperidine-1-carbonyl)pyrazolo[1,5-a]pyridin-7-yl]amino]isoindolin-1-one] | > 1.5 | ≤ 100 nM |
| O=C(c1ccc(-c2cccc3c(C(=O)N4CCCCC4)cnn23)cn1)N1CCOCC1 [Example 74, (7-(6-(morpholine-4-carbonyl)pyridin-3-yl)pyrazolo[1,5-a]pyridin-3-yl)(piperidin-1-yl)methanone] | > 1.5 | ≤ 100 nM |
| COc1noc2ccc(-c3cccc4c(C(=O)N5CCCCC5)cnn34)cc12 [Example 269, (7-(3-methoxybenzo[d]isoxazol-5-yl)pyrazolo[1,5-a]pyridin-3-yl)(piperidin-1-yl)methanone] | > 1.5 | ≤ 100 nM |
| N#CCNC(=O)c1ccc(-c2cccc3c(C(=O)N4CCCCC4)cnn23)cc1 [Example 70, N-(cyanomethyl)-4-(3-(piperidine-1-carbonyl)pyrazolo[1,5-a]pyridin-7-yl)benzamide] | > 1.5 | ≤ 100 nM |
| Cn1oc2ccc(-c3cccc4c(C(=O)N5CCCCC5)cnn34)cc2c1=O [Example 268, 2-methyl-5-(3-(piperidine-1-carbonyl)pyrazolo[1,5-a]pyridin-7-yl)benzo[d]isoxazol-3(2H)-one] | > 1.5 | ≤ 100 nM |
| CC(C)N1CCN(C(=O)c2cncc(-c3cccc4c(C(=O)N5CCCCC5)cnn34)c2)CC1 [Example 50, (4-isopropylpiperazin-1-yl)(5-(3-(piperidine-1-carbonyl)pyrazolo[1,5-a]pyridin-7-yl)pyridin-3-yl)methanone] | > 1.5 | ≤ 100 nM |
| O=C(c1cnn2c(-c3ccc4occc4c3)cccc12)N1CCCCC1 [Example 127, (7-(benzofuran-5-yl)pyrazolo[1,5-a]pyridin-3-yl)(piperidin-1-yl)methanone] | > 1.5 | ≤ 100 nM |
